Values quoted from earlier work in US8389248B2, “Deoxyketohexose isomerase and method for producing deoxyhexose and derivative thereof using same” (priority 2006, dated 2013).

System: L-rhamnose isomerase
Details: for Influence of chelating agents on enzyme activity: chelating agent concurrently present during the assay of the activity

| Compound | Influence of chelating agents on enzyme activity | Influence of metal ions: inhibition of the enzyme (1 mM) |
| --- | --- | --- |
| O=C(O)CN(CCN(CC(=O)O)CC(=O)O)CC(=O)O [EDTA] | hardly inhibited | – |
| O=C(O)CN(CCOCCOCCN(CC(=O)O)CC(=O)O)CC(=O)O [EGTA] | hardly inhibited | – |
| [Co+2] [cobalt ion] | – | about 30% |
